This assay concerns the target T1, HisRS (Histidyl-tRNA synthetase) (Escherichia coli, UniProt P60906).
T1 sequence (P60906 2-424): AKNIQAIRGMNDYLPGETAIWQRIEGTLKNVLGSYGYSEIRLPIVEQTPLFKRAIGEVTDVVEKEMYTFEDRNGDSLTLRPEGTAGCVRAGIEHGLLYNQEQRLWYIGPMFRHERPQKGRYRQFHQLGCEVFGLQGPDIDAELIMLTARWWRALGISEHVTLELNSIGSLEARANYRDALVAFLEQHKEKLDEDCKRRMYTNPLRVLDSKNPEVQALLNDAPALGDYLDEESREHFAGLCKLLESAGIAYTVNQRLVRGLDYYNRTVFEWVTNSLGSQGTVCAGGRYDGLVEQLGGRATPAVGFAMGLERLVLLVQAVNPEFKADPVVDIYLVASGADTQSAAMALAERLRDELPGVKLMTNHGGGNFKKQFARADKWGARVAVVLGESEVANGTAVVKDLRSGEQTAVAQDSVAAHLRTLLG
In words: differential scanning fluorimetry. To be noted: 10 mM ATP; apo Tm 53.4 ± 1.1 °C; 10 uM enzyme, 20 mM HEPES pH 7.5, 150 mM KCl. It is filed as binding.

This note sets out measurements from PMC5493479 (Methods (San Diego, Calif.), 2016).

As to `Nc1ncnc2c1ncn2[C@@H]1O[C@H](COP(=O)(O)OP(=O)(O)OP(=O)(O)O)[C@@H](O)[C@H]1O` [ATP], the “ATP 10 mM Tm (°C)” value stood at 55.8 ± 0.5 °C.
